In PubChem BioAssay (NCI):
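Dose response: 5 concentrations. Exposure: 48 h. Format: 96-well plates. Endpoint: linear interpolation; highest concentration if not reached. TGI denotes the concentration required for complete inhibition of growth.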

Key:
Assay in all cases: DTP human tumour cell line panel, 48 h
[1] = tested on: 786-0 renal
[2] = tested on: A498 renal
[3] = tested on: A549 NSCLC
[4] = tested on: ACHN renal
[5] = tested on: BT-549 breast
[6] = tested on: CAKI-1 renal
[7] = tested on: CCRF-CEM leukemia
[8] = tested on: COLO 205 colon
[9] = tested on: DU-145 prostate
[10] = tested on: EKVX NSCLC
[11] = tested on: HCC-2998 colon
[12] = tested on: HCT-116 colon
[13] = tested on: HCT-15 colon
[14] = tested on: HL-60(TB) leukemia
[15] = tested on: HOP-62 NSCLC
[16] = tested on: HOP-92 NSCLC
[17] = tested on: HS 578T breast
[18] = tested on: HT29 colon
[19] = tested on: IGROV1 ovarian
[20] = tested on: K-562 leukemia
[21] = tested on: KM12 colon
[22] = tested on: LOX IMVI melanoma
[23] = tested on: M14 melanoma
[24] = tested on: MALME-3M melanoma
[25] = tested on: MCF7 breast
[26] = tested on: MDA-MB-231 breast
[27] = tested on: MDA-MB-435
[28] = tested on: MDA-N
[29] = tested on: MOLT-4 leukemia
[30] = tested on: NCI-H226 lung
[31] = tested on: NCI-H23 lung
[32] = tested on: NCI-H460 lung
[33] = tested on: NCI-H522 lung
[34] = tested on: NCI/ADR-RES ovarian
[35] = tested on: OVCAR-3 ovarian
[36] = tested on: OVCAR-4 ovarian
[37] = tested on: OVCAR-5 ovarian
[38] = tested on: OVCAR-8 ovarian
[39] = tested on: PC-3 prostate
[40] = tested on: RPMI-8226 leukemia
[41] = tested on: RXF 393 renal
[42] = tested on: SF-268 CNS
[43] = tested on: SF-295 CNS
[44] = tested on: SF-539 CNS
[45] = tested on: SK-MEL-2 melanoma
[46] = tested on: SK-MEL-28 melanoma
[47] = tested on: SK-MEL-5 melanoma
[48] = tested on: SK-OV-3 ovarian
[49] = tested on: SN12C renal
[50] = tested on: SNB-19 CNS
[51] = tested on: SNB-75 CNS
[52] = tested on: SW-620 colon
[53] = tested on: T-47D breast
[54] = tested on: TK-10 renal
[55] = tested on: U251 CNS
[56] = tested on: UACC-257 melanoma
[57] = tested on: UACC-62 melanoma
[58] = tested on: UO-31 renal

Measured: TGI

CC(=O)OCC1OC(OC2CC3C(C)(C)C(O)CC[C@]3(C)C3CCC45CC4(CCC5[C@@H](C)CC(O)C(O)C(C)(C)O)[C@]23C)C(O)C(O)C1O (stereo partly drawn)
> 10 µM: [1] | [2] | [3] | [4] | [5] | [6] | [7] | [8] | [9] | [10] | [11] | [12] | [13] | [14] | [15] | [16] | [17] | [18] | [19] | [20] | [21] | [22] | [23] | [24] | [25] | [26] | [27] | [28] | [29] | [30] | [31] | [32] | [33] | [34] | [35] | [36] | [37] | [38] | [39] | [40] | [41] | [42] | [43] | [44] | [45] | [46] | [47] | [48] | [49] | [50] | [51] | [52] | [53] | [54] | [55] | [56] | [57] | [58]
